Assays:
[1] = tested on: MDA-MB-231 breast cancer cells co-injected with Cav-1-deficient stromal fibroblasts; assay: Two-component xenograft: nude mice co-injected with MDA-MB-231 cells and Cav-1-deficient stromal fibroblasts, treated with glycolysis inhibitors; assay type: in vivo; conditions: given individually, 200 mg/kg; mice co-injected with Cav-1-deficient stromal fibroblasts and MDA-MB-231 cells
Procedure: Mice co-injected with Cav-1-deficient stromal fibroblasts and MDA-MB-231 breast cancer cells were treated with glycolysis inhibitors. The efficacy of two well-established glycolysis inhibitors, namely 2-DG (2-deoxy-D-glucose) and DCA (dichloro-acetate), individually or in combination were tested.
To provide additional experimental validation for the idea that an absence of stromal Cav-1 promotes breast cancer tumor growth and angiogenesis, a 2-component cell-system using xenografts in immuno-deficient female nude mice was developed. Briefly, the flanks of nude mice were injected with a mixture of 1) MDA-MB-231 cells (a highly aggressive human breast cancer cell line; 1.0×10^−6 cells) and 2) stromal fibroblasts, derived from either WT or Cav-1 (−/−) null mice (0.3×10^−6 cells). After 3 weeks, nude mice were sacrificed and breast cancer-derived tumors were subjected to analysis for growth (tumor weight and volume measurements) and immuno-histochemistry with markers of angiogenesis, such as CD31 (a.k.a, PECAM1).
In this two-component system, nude mice are co-injected with i) human breast cancer cells (MDA-MB-231), and ii) stromal fibroblasts (WT versus Cav-1 (−/−) deficient).

[2] = tested on: PD-ECGF/TP transfected cells; conditions: Haraguchi (1993); cited from earlier work
[3] = tested on: neovascularization; conditions: Oikawa (1988); cited from earlier work
[4] = tested on: invasive carcinomas of the breast; assay: Breast cancer tissue microarray cohort: progression-free survival by treatment and stromal Cav-1; assay type: in vivo, human
Procedure: Breast tissues for tissue microarray construction were obtained from the Surgical Pathology tiles at the University of Michigan with institutional Review Board (IRB) approval. The TMA contained tissues derived from 154 largely consecutive patients with invasive carcinomas of the breast, with follow-up information treated at the University of Michigan from 1987-1991. Clinical and pathological variables were determined following well-established criteria. All invasive carcinomas were graded according to the method described by Elston and Ellis 17; Lymphovascular Invasion (LVI) was classified as either present or absent. The tissue microarrays were constructed, as previously described, using a tissue arrayer (Beecher Instruments, Silver Spring, Md.). Three tissue cores (0.6 mm diameter) were sampled from each block to account for tumor and tissue heterogeneity and transferred to the recipient block. Only cases with two or three cores containing tumor stromal cells were considered for statistical analysis in order to address possible heterogeneity of the staining in various tumor portions. Clinical and treatment information was extracted by chart review.
Our study population consists of 154 women diagnosed with breast cancer, with a median age of 59.5 years (range 28-96 years). 85% of the women were white. The median follow-up time for all survivors was 8.4 years (>30 days-18.5 years). […] The median time to recurrence or death from any cause was 7.1 years.
Statistical Analysis. For each patient, the date of breast cancer diagnosis, date of last follow-up, vital status at last follow-up, causes of death (breast cancer or other), and breast cancer recurrence, were recorded. Stromal caveolin was scored for each tissue sample based on 3 cores taken from the sample and given a numeric score of 0, 1 or 2, depending on the degree of stromal Cav-1 staining. The median of the three numeric scores was taken to be the stromal Cav-1 score for the sample. In the event that only two of the cores were scorable, and the median score was fractional, it was rounded upward to reflect the presence of stromal Cav-1. […]
Our primary outcome of interest in this study is progression-free survival (PFS) from time of diagnosis to the presence of metastasis, death, or last visit. PFS is evaluated using Kaplan-Meier estimation, and comparison of stratified survival curves was done using log-rank tests. […] Associations between the presence of stromal Cav-1 and other factors, including age, race, tumor grade, tumor size, lymph node status, histological subtype, estrogen receptor (ER), progesterone receptor (PR) and HER2, and presence of recurrent disease, were evaluated using Fisher's exact and Kruskal-Wallis tests, depending on the discrete or continuous nature of the other factors.

[5] = tested on: Cav-1; assay: Co-culture of MCF-7 cells with normal human fibroblasts: Cav-1 down-regulation in fibroblasts; assay type: cell-based; conditions: within 5 days of co-culture
Excerpt: Using this system, it was observed that within 5 days of co-culture MCF-7 cells down-regulate the expression of Cav-1 in adjacent stromal fibroblasts. This occurs via the degradation of Cav-1 in lysosomal structures, and can be inhibited by chloroquine, an anti-lysomal agent. Most importantly, MCF-7 cells induce oxidative stress in the adjacent fibroblasts via the over-production of reactive oxygen species (ROS). ROS, in turn, is known to stabilize and activate certain transcription factors, such as NFkB and HIF. NFkB- and HIF- are the master regulators of “inflammation” and “hypoxia/aerobic glycolysis” in the tumor microenvironment. Thus, in order to detect the activation of NFkB and HIF only in the fibroblast cell population, two different fibroblast cell lines engineered to express either a NFkB-luciferase or HIF-luciferase transcriptional reporter were used. […] As such, NFkB is activated first, while HIF is activated on day 4 and day 5 of coculture, coicindent with Cav-1 down-regulation. Thus, cancer cells induce the Warburg effect in adjacent stromal fibroblasts via the activation of NFkB and HIF-target genes, leading to inflammation and aerobic glycolysis. These findings provide a mechanistic basis for the “Reverse Warburg Effect”, and a new high-throughput drug-screening assay for the identification of novel compounds that block the “Reverse Warburg Effect”.

[6] = Tamoxifen-treated patients, stromal Cav-1 absent

Q: For O=CC[C@@H](O)[C@H](O)[C@H](O)CO [2-DG, 2-deoxy-D-glucose], which “effect on tumor growth” value [1] is on record?
A: The value was “no effect on tumor growth”.

Q: Which “antitumor effect in PD-ECGF/TP transfected cells compared with untransfected wild-type cells” value [2] does the source give for C[C@H]1O[C@@H](n2cc(F)c(=O)[nH]c2=O)[C@H](O)[C@@H]1O [5′DFUR, 5′-deoxy-5-fluorouridine] here?
A: The value was “dramatic enhancement of antitumor effect”.

Q: With CC(=O)O[C@]1(C(C)=O)CC[C@H]2[C@@H]3C[C@H](C)C4=CC(=O)CC[C@]4(C)[C@H]3CC[C@@]21C [MPA, medroxyprogesterone acetate] as the compound, how does the “neovascularization in the rabbit corneal assay” value [3] read?
A: The value was “potently inhibited neovascularization”.

Q: With CC/C(=C(\c1ccccc1)c1ccc(OCCN(C)C)cc1)c1ccccc1 [Tamoxifen] as the compound, how does the “Hazard ratio, Cox regression of Progression-Free Survival (PFS)” value ([4]; Tamoxifen use Yes vs No (ref), adjusted for T stage, N stage, stromal Cav-1, 101 observations) read?
A: The value was 0.621.

Q: And the “Median Progression-Free Survival (PFS)” value [4, 6]?
A: The value was 3.55 years.

Q: And the “Percent of Patients Alive with No Recurrence, 5-Year PFS” value [4, 6]?
A: The value was 28.6%.

Q: What about the “Percent of Patients Alive with No Recurrence, 5-Year PFS” value ([4]; Tamoxifen-treated patients, stromal Cav-1 present) of the same compound?
A: Its value is 90.2%.

Q: For CCN(CC)CCCC(C)Nc1ccnc2cc(Cl)ccc12 (centres unmarked) [chloroquine], which “degradation of Cav-1 in lysosomal structures of fibroblasts co-cultured with MCF-7 cells” value [5] is on record?
A: The value was “inhibited”.

From patent US20120039805A1, “Therapeutics And Methods For Treating Neoplastic Diseases Comprising Determining The Level Of Caveolin-1 And/Or Caveolin-2 In A Stromal Cell Sample” (PANGEA BIOSCIENCES, INC., priority 2009, published 2012)
